This note sets out measurements from patent publication US10751358B2, “Multitargeted nucleoside derivatives” (priority 2017, dated 2020).

The subject of test [1] is M14. The test is described as follows: NCI panel growth inhibition, M14. The class given is cell-based. As to conditions: Homo sapiens, 10 micromolar. The source says: (§1) A sample of the variety of human cancer cell lines, whose growth was inhibited more than 50% by 10 micromolar concentration of the prototype drug 6a, is shown in Table 2.
(§2) The description of the human cancer cell lines used is as follows: ACHN, human renal adenocarcinoma; HL-60(TB), human acute myeloid leukemia; HCT-116, human colon carcinoma; HOP-62, human adenocarcinoma (non-small cell lung cancer); M14, human metastatic malignant melanoma; MCF7, human mammary adenocarcinoma; OVCAR-8, human ovarian carcinoma.

Test [2] has as its system OVCAR-8. The test is described as follows: NCI panel growth inhibition, OVCAR-8. As to conditions: Homo sapiens, 10 micromolar. In kind it is cell-based.
Excerpt: as §1, §2

Test [3] deals with MCF-7. The test can be described thus: NCI panel growth inhibition, MCF-7. The class given is cell-based. Conditions: Homo sapiens, MCF7, 10 micromolar.
Excerpt: as §1, §2

The test system of test [4] is human colon cancer HCT-116 cells. The test is described as follows: HCT-116 xenograft test for in vivo oral anticancer activity. Further details: species or system mice. As to conditions: athymic nude mice, daily oral dosing, 25 mg/kg. The source says:
This example provides a description of HCT-116 xenograft test for in vivo oral anticancer activity of 6a.
Forty athymic nude mice (NCr nude, female, 5-6 weeks old, 20-25 g, Taconic) were inoculated with 6×10^6 exponentially growing human colon cancer HCT-116 cells, 1:1 ratio with Matrigel in 100 microliter into the right flank. Over the following 10 days, tumors reached a volume of 70 to 130 mm^3. Tumor volume were caliper-measured and calculated as length×width×width/2. Thirty mice were randomly allocated into three groups: (1) vehicle control group, (2) 6a test group, and (3) capecitabine (Cayman Chemical Co.) positive control group, with 10 mice into each group. Dosing solutions of each were prepared and kept refrigerated during the course of the test. Each mouse was dosed daily by oral administration.
After starting the dosing, body weights and tumor size measurements were recorded twice weekly to the end of the test.

For test [5], the system named is HCT-116. The test is described as follows: NCI panel growth inhibition, HCT-116. The class given is cell-based. Conditions: Homo sapiens, 10 micromolar.
Excerpt: as §1, §2

In test [6] the test system is NCI-H522. The test can be described thus: NCI panel growth inhibition, NCI-H522. The class given is cell-based. As to conditions: Homo sapiens, 10 micromolar.
Excerpt: as §1, §2

For test [7], the system named is ACHN. The test can be described thus: NCI panel growth inhibition, ACHN. The class given is cell-based. Conditions: Homo sapiens, 10 micromolar.
Excerpt: as §1, §2

Test [8] relates to National Cancer Institute's panel of human cell lines. The test can be described thus: National Cancer Institute's panel of human cell lines in culture. The class given is cell-based. As to conditions: 10 micromolar, cell lines of Table 2, read-out: growth inhibition of the sampled human cancer cell lines.
Excerpt: as §1

Test [9] deals with KG-1 human acute myeloid leukemia cells. The test is described as follows: Cell viability assay of Promega, KG-1 cells. The class given is cell-based. The source says: Using the cell viability assay of Promega, the following IC50-values were obtained against KG-1 human acute myeloid leukemia cells (Table 3). The nucleoside carbamate capecitabine (Xeloda®) is included for comparison).

Test [10] concerns HL60. The test is described as follows: NCI panel growth inhibition, HL60. The class given is cell-based. As to conditions: Homo sapiens, HL-60, 10 micromolar.
Excerpt: as §1, §2

Broadly, the inhibition is the relative decrease from the control value, in per cent. As a reminder, the IC50 is the concentration that gives 50% inhibition. As to `CCCCCOC(=O)Nc1nc(=O)n([C@@H]2O[C@H](CO)[C@@H](O)C2(F)F)cc1F` [Compound 6a, N^4-Pentyloxycarbonyl-2′-deoxy-2′,2′,5-trifluorocytidine], the inhibition at 10 µM in [1] came out at 85.9%; in test [2], 71.6%; in test [3] it was 51.9%; in test [5], 63.5%; in test [6] it was 61.1%; in test [7], 86.4%. The inhibition at 10 µM in test [8] is over 50%; in [10], 75.8%. In [4], the “in vivo oral anticancer activity (growth of human colon cancer in mice)” value was “orally active in vivo”. This molecule came in with a half-inhibitory concentration (IC50) in [9] (Homo sapiens, cell viability) of 0.129 ± 0.0107 µM. Besides, the “Ratio (IC50-value of capecitabine/IC50-value of test compound)” value in test [9] (fold potency versus capecitabine) was 69.
